Data: patent US20070149508A1, “Six membered heteroaromatic inhibitors targeting resistant kinase mutations” (TargeGen, Inc., priority 2005, published 2007)
Where a name gives a salt, the structure may show the parent alone.

What was measured:
[1] = target: T1, Abl (T315I) (Homo sapiens, UniProt P00519, T315I); test: Abl (T315I) Kinase Assay (KinaseGlo luminescent detection of residual ATP); type: biochemical; conditions: Abl (T315I) IC50 (nM), Abl (T315I) (Upstate, 17 ng/well), Abltide 100 uM, ATP 500 nM, 60 minutes at 37° C.
T1 construct: purchased Upstate
Experimental: The assay was performed similarly to the Abl kinase assay. Abl (T315I) (Upstate, 17 ng/well); Abltide substrate (100 uM) and ATP (500 nM) comprised the reaction mixture. Compound was similarly diluted, and the reaction plate was incubated for 60 minutes at 37° C.

[2] = target: Abl kinase (Homo sapiens, UniProt P00519); test: biochemical; conditions: Abl IC50 (nM), Abl kinase (Invitrogen, 20 ng/well), Abltide 100 μM, ATP 500 nM, 37° C. for 60 minutes, top concentration 10 uM
Experimental: Kinase activity was assessed using luminescent detection (KinaseGlo, Promega) of residual ATP concentration in reaction mixtures containing optimized levels of kinase, substrate, ATP, compound and appropriate buffers. Kinase, substrate and ATP concentrations were determined per the supplier's recommendations. Briefly, this involved running concentration curves to select for optimal signal.
The reaction mixture (50 ul/well) consisted of Abl kinase (Invitrogen, 20 ng/well); Abltide peptide substrate (Upstate, 100 μM) and ATP (500 nM). Each compound was evaluated at a top concentration of 10 uM with 1:3 dilution steps, 10 dilution steps total. Compound was diluted into DMSO and transferred to the reaction plate, resulting in a final DMSO concentration of 2%. This amount of DMSO was determined not to interfere with the enzyme. The reaction was conducted at 37° C. for 60 minutes. The degree of inhibition was assessed using IC50 determinations, which were obtained using GraphPad Prism4.

Row | Structure (SMILES) | IC50 [1] [nM] | IC50 [2] [nM]
1 | NCC(=O)N1CCC(S(=O)(=O)c2ccc(Nc3ncc(/C=C/c4cccc5[nH]ccc45)cn3)cc2)CC1 [1-(4-(4-(5-((E)-2-(1H-indol-4-yl)vinyl)pyrimidin-2-ylamino)phenylsulfonyl)piperidin-1-yl)-2-aminoethanone hydrochloride] | 700 | 66
2 | O=S(=O)(c1ccc(Nc2ncc(/C=C/c3ccc4[nH]nnc4c3)cn2)cc1)C1CCNCC1 [5-((E)-2-(1H-benzo[d][1,2,3]triazol-5-yl)vinyl)-N-(4-(piperidin-4-ylsulfonyl)phenyl)pyrimidin-2-amine] | 467 | 75
3 | O=S(=O)(NCCN1CCCC1)c1ccc(Nc2ncc(/C=C/c3cc(O)ccc3F)cn2)cc1 [4-{5-[2-(2-Fluoro-5-hydroxy-phenyl)-vinyl]-pyrimidin-2-ylamino}-N-(2-pyrrolidin-1-yl-ethyl)-benzenesulfonamide] | 240 | 25
4 | O=S(=O)(c1ccc(Nc2ncc(/C=C/c3ccccc3)cn2)cc1NCCO)N1CCNCC1 [2-{[5-({5-[(E)-2-phenylvinyl]pyrimidin-2-yl}amino)-2-(piperazin-1-ylsulfonyl)phenyl]amino}ethanol trifluoroacetic acid salt] | 2500 | 131
5 | O=S(=O)(NCCN1CCCC1)c1ccc(Nc2ncc(CCc3cc(O)ccc3Cl)cn2)cc1 [4-{5-[2-(2-Chloro-5-hydroxy-phenyl)-ethyl]-pyrimidin-2-ylamino}-N-(2-benzenesulfonamide hydrochloride] | 805 | 5
6 | O=S(=O)(NCCN1CCCC1)c1ccc(Nc2ncc(/C=C/c3cc(O)ccc3Cl)cn2)cc1 [4-{5-[2-(2-Chloro-5-hydroxy-phenyl)-vinyl]-pyrimidin-2-ylamino}-N-(2-pyrrolidin-1-yl-ethyl)-benzenesulfonamide] | 390 | 7.7
7 | O=S(=O)(c1ccc(Nc2ncc(/C=C/c3ccc(-c4c[nH]cn4)cc3)cn2)cc1)N1CCNCC1 [(5-{2-[4-(1H-Imidazol-4-yl)-phenyl]-vinyl}-pyrimidin-2-yl)-[4-(piperazine-1-sulfonyl)-phenyl]-amine] | 5040 | 2860
8 | Nc1nc2ccc(/C=C/c3cnc(Nc4ccc(S(=O)(=O)N5CCC(O)CC5)cc4)nc3)cc2s1 [(E)-1-(4-(5-(2-(2-aminobenzo[d]thiazol-6-yl)vinyl)pyrimidin-2-ylamino)phenylsulfonyl)piperidin-4-ol] | 317 | 922
9 | O=S(=O)(c1ccc(Nc2ncc(/C=C/c3cccc(O)c3)cn2)cc1F)N1CCNCC1 [3-(2-{2-[3-Fluoro-4-(piperazine-1-sulfonyl)-phenylamino]-pyrimidin-5-yl}-vinyl)-phenol] | 266 | 56
10 | O=S(=O)(c1ccc(Nc2ncc(/C=C/c3cccc4[nH]ncc34)cn2)cc1)N1CCNCC1 [{5-[2-(1H-Indazol-4-yl)-vinyl]-pyrimidin-2-yl}-[4-(piperazine-1-sulfonyl)-phenyl]-amine] | 289 | 44
11 | Cc1ccc(/C=C/c2cnc(Nc3ccc(S(=O)(=O)C4CCNCC4)cc3)nc2)c2cc[nH]c12 [5-((E)-2-(7-methyl-1H-indol-4-yl)vinyl)-N-(4-(piperidin-ylsulfonyl)phenyl)pyrimidin-2-amine Hydrochloride] | 167 | 58
12 | Nc1nc2ccc(/C=C/c3cnc(Nc4ccc(S(=O)(=O)N5CCNCC5)c(C(F)(F)F)c4)nc3)cc2s1 [6-[(E)-2-(2-{[4-(piperazin-1-ylsulfonyl)-3-(trifluoromethyl)phenyl]amino)pyrimidin-5-yl)vinyl]-1,3-benzothiazol-2-amine] | 2100 | 1020
13 | NS(=O)(=O)c1ccc(/C=C/c2cnc(Nc3ccc(S(=O)(=O)N4CCCNCC4)cc3)nc2)cc1 [4-(2-{2-[4-([1,4]Diazepane-1-sulfonyl)-phenylamino]-pyrimidin-5-yl}-vinyl)-benzenesulfonamide] | 298 | 977
14 | NS(=O)(=O)c1cccc(/C=C/c2cnc(Nc3ccc(S(=O)(=O)N4CCCNCC4)cc3)nc2)c1 [3-(2-{2-[4-([1,4]Diazepane-1-sulfonyl)-phenylamino]-pyrimidin-5-yl}-vinyl)-benzenesulfonamide] | 2440 | 781
15 | O=S(=O)(c1ccc(Nc2ncc(/C=C/c3ccc(-c4nnn[nH]4)cc3)cn2)cc1)C1CCNCC1 [5-((E)-4-(1H-tetrazol-5-ylsulfonyl)phenyl)pyrimidin-yl)styryl)-N-(4-(piperidin-4-2-amine hydrochloride] | 4180 | 3260

The next compounds have a lower IC50 [1] than those just listed; values first:

Row | IC50 [1] [nM] | IC50 [2] [nM] | Structure (SMILES)
16 | 146 | 158 | Nc1nc2ccc(/C=C/c3cnc(Nc4ccc(S(=O)(=O)N5CCC(NCCO)CC5)cc4)nc3)cc2s1 [2-[(1-{[4-({5-[(E)-2-(2-amino-1,3-benzothiazol-6-yl)vinyl]pyrimidin-2-yl}amino)phenyl]sulfonyl}piperidin-4-yl)amino]ethanol]
17 | 160 | 18 | O=S(=O)(c1ccc(Nc2ncc(/C=C/c3cccc(O)c3)cn2)cc1)N1CCC(CCO)CC1 [3-[2-(2-{4-[4-(2-Hydroxy-ethyl)-piperidine-1-sulfonyl]-phenylamino}-pyrimidin-5-yl)-vinyl]-phenol]
18 | 29 | 47 | Nc1nc2ccc(/C=C/c3cnc(Nc4ccc(S(=O)(=O)NC5CCNCC5)cc4)nc3)cc2s1 [4-{5-[2-(2-Amino-benzothiazol-6-yl)-vinyl]-piperidin-4-yl-benzenesulfonamide]
19 | 33 | 84 | Nc1nc2ccc(/C=C/c3cnc(Nc4ccc(S(=O)(=O)N(CCO)C5CCNCC5)cc4)nc3)cc2s1 [4-({5-[(E)-2-(2-amino-1,3-benzothiazol-6-vinyl]pyrimidin-2-yl}amino)-N-(2-hydroxyethyl)-N-piperidin-4-ylbenzenesulfonamide]
20 | 29 | 1.5 | O=S(=O)(c1ccc(Nc2ncc(/C=C/c3cccc4[nH]ncc34)cn2)cc1)C1CCNCC1 [5-((E)-2-(1H-indazol-4-ylsulfonyl)phenyl)pyrimidin-yl)vinyl)-N-(4-(piperidin-4-2-amine trifluoroacetic acid salt]
21 | 22 | 39 | Nc1nc2ccc(/C=C/c3cnc(Nc4ccc(S(=O)(=O)N5CCCNCC5)cc4)nc3)cc2s1 [(E)-6-(2-(2-(4-(1,4-diazepan-1-ylsulfonyl)phenylamino)pyrimidin-5-yl)vinyl)benzo[d]thiazol-2-amine]
22 | 112 | 8.9 | O=S(=O)(NCCCO)c1ccc(Nc2ncc(/C=C/c3cccc(O)c3)cn2)cc1 [4-{5-[2-(3-Hydroxy-phenyl)-vinyl]-pyrimidin-2-ylamino}-N-(3-hydroxy-propyl)-benzenesulfonamide]
23 | 136 | 469 | Nc1cn2cc(/C=C/c3cnc(Nc4ccc(S(=O)(=O)C5CCNCC5)cc4)nc3)ccc2n1 [6-[(E)-2-(2-{[4-(piperidin-4-ylsulfonyl)phenyl]amino}pyrimidin-5-yl)vinyl]imidazolo[1,2-a]pyridin-2-amine trifluoroacetic acid salt]
24 | 78 | 7.3 | O=S(=O)(c1ccc(Nc2ncc(/C=C/c3cccc(O)c3)cn2)cc1NCCO)N1CCNCC1 [3-{(E)-2-[2-({3-[(2-hydroxyethyl)amino]-4-(piperazin-1-ylsulfonyl)phenyl}amino)pyrimidin-5-yl]vinyl}phenol trifluoroacetic acid salt]
